# Experiments:
# J774A.1 cells = test: TSZ-induced J774A.1 cell necroptosis model (CCK8); format: cell-based; conditions: Mus musculus, J774.A1
# Protocol: (§1) Cell necroptosis protection assays were performed in 96-well cell culture plates. Cells were plated in each well and cultured at 37 °C overnight. […] The cell survival rate was determined using a CCK8 cell viability assay kit and CLARIOstar (v5.61). […] All experiments were performed at least two times, and each EC50 value was expressed as mean ± standard deviation (SD).
# [1] = system: RIPK1 knockout HT29 cells; test: TSZ treatment of RIPK1 knockout HT29 cells (CCK8); format: cell-based; conditions: Homo sapiens, HT-29, read-out: Cell Viability (%) Average
# Protocol: as §1
# The lentiCRISPRv2 vector targeting RIPK1 (sgRNA, 5’- […]-3’) was constructed by the Azenta company. HEK 293 T cells were transfected with lentiCRISPRv2 targeting RIPK1 and empty vector using Hieff Trans^TM Liposomal Transfection Reagent (Yeasen), respectively. […] The concentrated viruses were added to HT29 cells along with 8 μg/mL of polybrene (Yeasen) to enhance transfection efficiency. The infection assay was repeated in the next day under the same conditions. Finally, HT29 cells were screened with 3 μg/mL puromycin. Western blot analysis was used to confirm the RIPK1 deletion.
# TNFα-induced SIRS = TNFα-induced SIRS mouse model: H&E histology of organs; format: in vivo, C57BL/6 female mice; conditions: 40 mg/kg i.p.
# Protocol: The body temperatures of the mice were continuously monitored until 6 h after TNFα administration. At 6 h after TNFα injection, four mice in each group were killed at random, and the serums, heart, liver, spleen, lung, and kidney tissues were collected for analysis. Mice mortality was continuously monitored until 72 h after TNFα administration.
# The heart, liver, spleen, lung, kidney and colon tissues were fixed directly in 4% paraformaldehyde (24 h), embedded in paraffin, and stained with H&E following standard procedures. All images were acquired using a Pannoramic MIDI scanner.
# DSS-induced IBD = DSS-induced IBD mouse model: body weight; format: in vivo, C57BL/6 female mice; conditions: for Body Weight (%): Figure 9a
# Protocol: DSS (3% w/v) was administered in drinking water ad libitum for 7 d (from day 0 to day 7). DSS solution was replaced three times on day 2, day 4, and day 6. […] Three mice in each group were killed at random on day 7, and distal colon tissues were collected for analysis. The mice weight and survival rate were recorded daily.
# RIPK3 = RIPK3 (Homo sapiens, UniProt Q9Y572); test: Kinase IC50 assay (Eurofins); format: biochemical
# Protocol: (§2) In vitro kinase activity assays were conducted through the Kinase Profiling Services provided by Eurofins (Eurofins, France). The protocol for the RIPK1 assay is briefly described as follows (Protocols for other kinases are very similar and can be found in http://www.eurofins.com/pharmadiscovery). RIPK1 kinase was incubated with the test compound in assay buffer containing 8 mM MOPS (pH 7.0), 0.2 mM EDTA, 250 μM […], 10 mM magnesium acetate, and 10 μM [γ-33P]-ATP for 15 min at room temperature. The reaction was initiated by the addition of the Mg/ATP mixture. After incubation for 40 min at room temperature, and the reaction was stopped by the addition of 3% phosphoric acid. A 10 μL portion of the reaction mixture was then spotted onto a P30 filter mat and washed four times for 4 min in 0.425% phosphoric acid and once in methanol prior to drying and scintillation counting.
# RIPK4 = RIPK4 (Homo sapiens, UniProt P57078); test: Kinase IC50 assay (Eurofins); format: biochemical
# Protocol: as §2
# [2] = biological target: panel of human kinases (kinase named in endpoint) (Homo sapiens, UniProt O00238); test: Kinase inhibitory activity profiling of RI-962@10 µM (406 kinases, Eurofins); format: biochemical; conditions: 10 µM; read-out: Activity (%), ALK6(h)
# Protocol: as §2
# [3] = biological target: panel of human kinases (kinase named in endpoint) (Homo sapiens, UniProt O00329); test: as above; format: biochemical; conditions: 10 µM; read-out: Activity (%), PI3 Kinase (p110d/p85a)(h)
# Protocol: as §2
# [4] = biological target: panel of human kinases (kinase named in endpoint) (Homo sapiens, UniProt P00519, M351T); test: as above; format: biochemical; conditions: 10 µM; read-out: Activity (%), Abl (M351T)(h)
# Protocol: as §2
# [5] = biological target: panel of human kinases (kinase named in endpoint) (Homo sapiens, UniProt P00519, T315I); test: as above; format: biochemical; conditions: 10 µM; read-out: Activity (%), Abl(T315I)(h)
# Protocol: as §2
# [6] = biological target: panel of human kinases (kinase named in endpoint) (Homo sapiens, UniProt P00519, Y253F); test: as above; format: biochemical; conditions: 10 µM; read-out: Activity (%), Abl(Y253F)(h)
# Protocol: as §2
# [7] = biological target: panel of human kinases (kinase named in endpoint) (Homo sapiens, UniProt P05129); test: as above; format: biochemical; conditions: 10 µM; read-out: Activity (%), PKCγ(h)
# Protocol: as §2
# [8] = biological target: panel of human kinases (kinase named in endpoint) (Homo sapiens, UniProt P53355); test: as above; format: biochemical; conditions: 10 µM; read-out: Activity (%), DAPK1(h)
# Protocol: as §2
# [9] = biological target: panel of human kinases (kinase named in endpoint) (Homo sapiens, UniProt Q13976); test: as above; format: biochemical; conditions: 10 µM; read-out: Activity (%), PKG1α(h)
# Protocol: as §2
# [10] = biological target: panel of human kinases (kinase named in endpoint) (Homo sapiens, UniProt Q9BZL6); test: as above; format: biochemical; conditions: 10 µM; read-out: Activity (%), PKD2(h)
# Protocol: as §2
# Sequence of panel of human kinases (kinase named in endpoint) (Homo sapiens, UniProt P53355) (P53355 whole entry): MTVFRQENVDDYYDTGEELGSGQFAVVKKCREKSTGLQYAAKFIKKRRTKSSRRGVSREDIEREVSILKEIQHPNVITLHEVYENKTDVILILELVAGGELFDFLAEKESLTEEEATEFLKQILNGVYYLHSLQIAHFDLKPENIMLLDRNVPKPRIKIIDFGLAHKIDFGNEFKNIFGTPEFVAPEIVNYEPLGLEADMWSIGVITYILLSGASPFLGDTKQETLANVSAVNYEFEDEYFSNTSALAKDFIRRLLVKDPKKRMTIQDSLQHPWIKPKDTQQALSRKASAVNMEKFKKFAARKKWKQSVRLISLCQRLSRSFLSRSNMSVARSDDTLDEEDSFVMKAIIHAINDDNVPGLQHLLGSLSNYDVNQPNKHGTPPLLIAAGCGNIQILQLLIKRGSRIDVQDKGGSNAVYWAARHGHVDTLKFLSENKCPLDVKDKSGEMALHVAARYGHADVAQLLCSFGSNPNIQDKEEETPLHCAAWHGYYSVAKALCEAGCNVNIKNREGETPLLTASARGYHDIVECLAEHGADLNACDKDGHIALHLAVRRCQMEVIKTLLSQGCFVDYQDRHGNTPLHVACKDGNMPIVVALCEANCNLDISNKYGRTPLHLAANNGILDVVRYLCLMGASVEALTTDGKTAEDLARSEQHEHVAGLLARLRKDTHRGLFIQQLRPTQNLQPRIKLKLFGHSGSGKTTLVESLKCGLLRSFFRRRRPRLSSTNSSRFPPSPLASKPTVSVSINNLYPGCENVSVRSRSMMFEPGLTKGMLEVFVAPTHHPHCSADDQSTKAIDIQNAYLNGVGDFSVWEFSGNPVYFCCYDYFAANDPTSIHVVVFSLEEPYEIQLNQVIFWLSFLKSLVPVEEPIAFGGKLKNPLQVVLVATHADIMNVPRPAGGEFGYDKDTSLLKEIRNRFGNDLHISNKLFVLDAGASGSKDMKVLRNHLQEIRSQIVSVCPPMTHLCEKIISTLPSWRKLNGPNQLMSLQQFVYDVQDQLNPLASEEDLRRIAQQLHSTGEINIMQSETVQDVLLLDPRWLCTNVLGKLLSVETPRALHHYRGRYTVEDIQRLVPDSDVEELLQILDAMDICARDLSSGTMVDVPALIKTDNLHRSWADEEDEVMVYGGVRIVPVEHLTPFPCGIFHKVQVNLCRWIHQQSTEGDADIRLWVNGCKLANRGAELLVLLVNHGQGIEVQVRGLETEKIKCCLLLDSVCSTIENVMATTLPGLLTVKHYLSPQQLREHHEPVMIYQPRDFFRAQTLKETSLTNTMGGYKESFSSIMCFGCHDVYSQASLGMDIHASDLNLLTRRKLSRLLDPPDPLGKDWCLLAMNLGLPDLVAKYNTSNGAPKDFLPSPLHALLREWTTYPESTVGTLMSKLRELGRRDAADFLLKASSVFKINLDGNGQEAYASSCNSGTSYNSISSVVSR
# Sequence of panel of human kinases (kinase named in endpoint) (Homo sapiens, UniProt Q9BZL6) (Q9BZL6 whole entry): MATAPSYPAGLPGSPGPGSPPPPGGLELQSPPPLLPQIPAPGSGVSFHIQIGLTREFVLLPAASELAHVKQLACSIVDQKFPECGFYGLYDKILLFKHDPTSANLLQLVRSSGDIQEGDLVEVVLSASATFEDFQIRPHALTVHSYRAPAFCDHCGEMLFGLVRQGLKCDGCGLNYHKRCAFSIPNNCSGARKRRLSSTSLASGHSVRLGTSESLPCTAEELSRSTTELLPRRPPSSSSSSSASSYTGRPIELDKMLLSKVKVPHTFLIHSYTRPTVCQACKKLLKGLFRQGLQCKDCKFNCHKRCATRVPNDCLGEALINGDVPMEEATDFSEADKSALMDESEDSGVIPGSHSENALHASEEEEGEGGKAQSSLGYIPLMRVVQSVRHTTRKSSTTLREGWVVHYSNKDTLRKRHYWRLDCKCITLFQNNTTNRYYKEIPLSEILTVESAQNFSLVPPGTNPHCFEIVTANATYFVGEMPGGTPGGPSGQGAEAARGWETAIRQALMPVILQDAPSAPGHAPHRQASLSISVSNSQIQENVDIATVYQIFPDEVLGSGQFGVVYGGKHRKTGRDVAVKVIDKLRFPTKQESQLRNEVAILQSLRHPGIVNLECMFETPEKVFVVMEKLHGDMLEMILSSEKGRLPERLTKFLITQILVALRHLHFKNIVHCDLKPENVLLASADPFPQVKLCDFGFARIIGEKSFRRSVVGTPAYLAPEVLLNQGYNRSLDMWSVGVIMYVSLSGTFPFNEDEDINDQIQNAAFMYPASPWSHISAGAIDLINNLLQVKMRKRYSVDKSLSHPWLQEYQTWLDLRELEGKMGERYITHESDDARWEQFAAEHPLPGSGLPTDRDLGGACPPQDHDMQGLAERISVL
# Sequence of panel of human kinases (kinase named in endpoint) (Homo sapiens, UniProt O00238) (O00238 14-502): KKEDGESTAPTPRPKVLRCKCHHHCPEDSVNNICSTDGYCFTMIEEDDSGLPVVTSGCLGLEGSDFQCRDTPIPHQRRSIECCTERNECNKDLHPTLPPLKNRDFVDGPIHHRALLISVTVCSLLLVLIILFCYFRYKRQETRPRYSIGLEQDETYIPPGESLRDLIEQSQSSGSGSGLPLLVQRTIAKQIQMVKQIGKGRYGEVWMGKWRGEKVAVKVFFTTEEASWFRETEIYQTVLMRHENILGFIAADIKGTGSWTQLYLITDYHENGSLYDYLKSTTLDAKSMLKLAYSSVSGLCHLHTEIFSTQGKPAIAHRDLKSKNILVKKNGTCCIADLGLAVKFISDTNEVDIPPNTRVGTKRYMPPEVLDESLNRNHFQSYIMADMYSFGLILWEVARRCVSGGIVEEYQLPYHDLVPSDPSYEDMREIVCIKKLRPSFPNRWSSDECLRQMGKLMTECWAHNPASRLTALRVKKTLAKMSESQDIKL
# Sequence of panel of human kinases (kinase named in endpoint) (Homo sapiens, UniProt O00329) (O00329 whole entry): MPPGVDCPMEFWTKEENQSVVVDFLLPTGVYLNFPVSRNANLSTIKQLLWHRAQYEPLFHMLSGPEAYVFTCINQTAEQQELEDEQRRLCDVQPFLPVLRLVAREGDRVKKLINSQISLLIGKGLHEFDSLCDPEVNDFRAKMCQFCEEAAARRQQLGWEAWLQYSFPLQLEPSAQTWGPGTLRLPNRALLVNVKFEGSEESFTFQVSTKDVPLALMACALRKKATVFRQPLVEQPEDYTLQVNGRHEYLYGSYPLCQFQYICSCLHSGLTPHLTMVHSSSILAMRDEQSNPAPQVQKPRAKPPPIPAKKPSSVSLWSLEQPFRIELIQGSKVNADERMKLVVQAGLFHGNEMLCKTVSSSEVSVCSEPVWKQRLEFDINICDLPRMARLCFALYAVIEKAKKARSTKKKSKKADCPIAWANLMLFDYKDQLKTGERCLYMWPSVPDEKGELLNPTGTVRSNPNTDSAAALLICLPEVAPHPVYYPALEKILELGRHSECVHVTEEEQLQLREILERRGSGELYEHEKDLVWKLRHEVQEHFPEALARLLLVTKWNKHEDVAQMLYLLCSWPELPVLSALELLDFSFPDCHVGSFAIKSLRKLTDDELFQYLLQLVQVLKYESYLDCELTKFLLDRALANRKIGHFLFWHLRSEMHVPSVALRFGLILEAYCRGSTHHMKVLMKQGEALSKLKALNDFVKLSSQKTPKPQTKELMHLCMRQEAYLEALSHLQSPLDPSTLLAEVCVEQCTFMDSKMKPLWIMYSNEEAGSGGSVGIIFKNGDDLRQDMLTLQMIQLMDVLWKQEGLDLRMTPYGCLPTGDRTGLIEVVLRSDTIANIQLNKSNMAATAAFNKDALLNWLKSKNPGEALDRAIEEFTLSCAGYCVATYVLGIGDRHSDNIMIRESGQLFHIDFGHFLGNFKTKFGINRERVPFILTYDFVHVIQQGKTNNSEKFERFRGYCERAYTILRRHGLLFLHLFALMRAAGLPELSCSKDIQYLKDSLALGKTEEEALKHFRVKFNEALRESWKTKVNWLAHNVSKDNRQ
# Sequence of RIPK3 (Q9Y572 whole entry): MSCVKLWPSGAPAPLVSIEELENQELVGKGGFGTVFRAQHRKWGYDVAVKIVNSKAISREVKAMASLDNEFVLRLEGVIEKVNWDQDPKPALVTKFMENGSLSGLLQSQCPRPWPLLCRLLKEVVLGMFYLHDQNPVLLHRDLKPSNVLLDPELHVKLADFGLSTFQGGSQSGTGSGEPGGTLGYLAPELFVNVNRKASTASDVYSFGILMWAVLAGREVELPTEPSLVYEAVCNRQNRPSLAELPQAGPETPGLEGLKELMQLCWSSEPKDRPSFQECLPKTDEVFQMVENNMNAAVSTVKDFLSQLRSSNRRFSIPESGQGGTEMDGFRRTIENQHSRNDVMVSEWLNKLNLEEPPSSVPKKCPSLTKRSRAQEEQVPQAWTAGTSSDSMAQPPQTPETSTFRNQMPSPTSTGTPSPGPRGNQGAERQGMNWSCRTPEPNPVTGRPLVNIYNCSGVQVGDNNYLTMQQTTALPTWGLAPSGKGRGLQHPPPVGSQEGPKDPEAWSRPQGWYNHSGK
smiles,measurement,setting,value
CC(C)C(=O)Nc1nc2cc(-c3ccc4c(c3)c(C(=O)NC(C)c3ccccc3)cn4C)ccn2n1 (stereo not shown) [RI-962],viability at 56 pM,J774A.1 cells; 0.000056 μM,1.06%
same,viability at 0.000169 µM,J774A.1 cells; 0.000169 μM,1.51%
same,viability at 0.000508 µM,J774A.1 cells; 0.000508 μM,3.42%
same,viability at 0.001524 µM,J774A.1 cells; 0.001524 μM,11.4%
same,viability at 0.004572 µM,J774A.1 cells; 0.004572 μM,24.7%
same,viability at 0.013717 µM,J774A.1 cells; 0.013717 μM,48.7%
same,viability at 0.041152 µM,J774A.1 cells; 0.041152 μM,85.3%
same,viability at 0.123457 µM,J774A.1 cells; 0.123457 μM,88.9%
same,viability at 0.37037 µM,J774A.1 cells; 0.370370 μM,93%
same,viability at 1.11111 µM,J774A.1 cells; 1.111111 μM,98.3%
same,viability at 3.33333 µM,J774A.1 cells; 3.333333 μM,91.5%
same,EC50,"J774A.1 cells; J774A.1 treated with TSZ, 24 h",0.0114 µM
same,viability at 0.000169 µM,[1]; 0.000169 μM + TSZ,89.4%
same,viability at 0.000508 µM,[1]; 0.000508 μM + TSZ,103%
same,viability at 0.001524 µM,[1]; 0.001524 μM + TSZ,87.5%
same,viability at 0.004572 µM,[1]; 0.004572 μM + TSZ,87.3%
same,viability at 0.013717 µM,[1]; 0.013717 μM + TSZ,90.8%
same,viability at 0.041152 µM,[1]; 0.041152 μM + TSZ,90.1%
same,viability at 0.123457 µM,[1]; 0.123457 μM + TSZ,94.4%
same,viability at 0.37037 µM,[1]; 0.370370 μM + TSZ,104%
same,viability at 1.11111 µM,[1]; 1.111111 μM + TSZ,97.9%
same,damage to the liver and kidney (H&E),TNFα-induced SIRS,attenuated damage to the liver and kidney
same,loss of body weight,DSS-induced IBD; 40 mg/kg i.p. once a day,strongly ameliorated this loss of body weight
same,Body Weight (%),DSS-induced IBD; day 0,100%
same,Body Weight (%),DSS-induced IBD; day 1,97.11%
same,Body Weight (%),DSS-induced IBD; day 2,98.41%
same,Body Weight (%),DSS-induced IBD; day 3,102.3%
same,Body Weight (%),DSS-induced IBD; day 4,103.1%
same,Body Weight (%),DSS-induced IBD; day 5,104.6%
same,Body Weight (%),DSS-induced IBD; day 6,103.5%
same,Body Weight (%),DSS-induced IBD; day 7,103.5%
same,Body Weight (%),DSS-induced IBD; day 8,99.79%
same,Body Weight (%),DSS-induced IBD; day 9,98.12%
same,Body Weight (%),DSS-induced IBD; day 10,98.15%
same,Body Weight (%),DSS-induced IBD; day 11,100.8%
same,Body Weight (%),DSS-induced IBD; day 12,100.7%
same,Body Weight (%),DSS-induced IBD; day 13,102.5%
same,Body Weight (%),DSS-induced IBD; day 14,104.7%
same,IC50,RIPK3,> 10 µM
same,IC50,RIPK4,> 10 µM
same,activity at 10 µM,[2],95%
same,activity at 10 µM,[3],64%
same,activity at 10 µM,[4],121%
same,activity at 10 µM,[5],132%
same,activity at 10 µM,[6],102%
same,activity at 10 µM,[7],93%
same,activity at 10 µM,[8],95%
same,activity at 10 µM,[9],101%
same,activity at 10 µM,[10],98%

# Source: PMC9653409, “Generative deep learning enables the discovery of a potent and selective RIPK1 inhibitor” (Nature Communications, 2022)
